The values below come from EP4635953A1, “PYRROLOPYRIDINE DERIVATIVE, AND PHARMACEUTICAL COMPOSITION THEREOF AND USE THEREOF” (Iregene Therapeutics Co., Ltd, priority 2022, dated 2024).

In the assay the target is single-stranded miR-145. In words: Isothermal titration calorimetry (ITC), Waters Nano-ITC. To be noted: for Kd: Multiple Sites model. The format is binding. An excerpt: Isothermal titration calorimetry (ITC) utilizes the principle of power compensation to accurately obtain the enthalpy change of intermolecular interactions within a broad concentration range in the system through a single concentration scan. It measures the heat change during binding and provides the complete thermodynamic characteristics of nucleic acid-ligand interactions. Quantifying the thermodynamic properties and energy of the complex is essential for analyzing the molecular basis of the interaction between the microRNA miR-145 and the compound. The present invention uses the Waters Nano-ITC calorimeter to in vitro verify the nucleic acid-small molecule interactions.
The experimental process involves placing 300µL of a 50µM single-stranded miR-145 solution in a temperaturecontrolled sample chamber, and using small molecule A-3-6 (i.e., the 2-phenyl-N-(1H-pyrrolo[2,3-c]pyridine-5-yl)acetamide obtained in Example 9) as the ligand in a 50µL, 500µM concentration, which is gradually injected (or titrated) into the sample chamber. The heat change is measured by comparing the sample chamber with a reference chamber, showing either an endothermic or exothermic peak. The interaction pattern between the two reactants is fitted using the software provided by the instrument, and it directly calculates the reaction binding enthalpy (ΔH, kJ/mol), reaction binding entropy (ΔS, J/(mol·K)), number of binding sites (n), and binding equilibrium constant (Ka, M), obtaining the kinetic data. […] The calculated number of binding sites (nSite) for A-3-6 with miR-145 solution are n1=3 and n2=1.8, with Kd1=7.017E-8 and Kd2=7.544E-9, ΔH1=-69.08 and ΔH2=-137.2, ΔS1=-9.474E1 and ΔS2=-3.048E2.
(Isothermal titration calorimetry measures the heat released or taken up as one component is titrated into another.)

Where two headings read alike, the source gives them in different places.

For the compound `O=C(Cc1ccccc1)Nc1cc2cc[nH]c2cn1` [Compound A-3-6, 2-Phenyl-N-(1H-Pyrrolo[2,3-c]pyridin-5-yl)acetamide], the Kd came to 70.2 nM (site 1, read-out: Kd1) and 7.54 nM (site 2, read-out: Kd2). In addition, for the setting “conclusion from the ITC experiment”, the “binding to the target single-stranded miR-145” value is reported as “can specifically bind”.
